Data as given in patent US8304394B2, “Low side effect pharmaceutical composition containing isoniazid” (priority 2008, dated 2012).
Read-outs that look alike come from different tables or passages of the source.

Legend:
rabbits = conditions: pretreatment with amidase inhibitor; cited from earlier work
[1] = molecular target: T1, human liver microsomal cytochrome P450 2E1 (CYP2E1) (Homo sapiens, UniProt P05181); experiment: Chlorzoxazone hydroxylation inhibition (6-OH-CZX by LC/MS/MS)
[2] = molecular target: T2, cDNA expressed human cytochrome P450 2E1 (CYP2E1) (Homo sapiens, UniProt P05181)
[3] = system: Male SD (Sprague-Dawley) rats; experiment: Liver histopathology by light and electron microscopy in the rat INH study; type: in vivo
Experimental: (§1) Animals were randomized into one of five groups, each involving three treatments. The first treatment involved either a BNPP injection of 25 mg/kg or a BNPP vehicle (VEH1) injection (saline). […] The second treatment involved injections of either 100 mg/kg DSF or DSF vehicle (VEH2, corn oil). DSF was dissolved in corn oil and i.p. injected at a volume of […]. The third treatment involved injections of INH (25 mg/kg) or INH vehicle (VEH3, saline). INH was dissolved in saline (0.9% NaCl), and i.p. injected at a volume of […]. The first treatment (BNPP or VEH1) was administered 30 minutes before the third treatment (INH or VEH3), and the second treatment (DSF or VEH2) was administered 15 minutes before the third treatment (INH or VEH3).
• (1) Normal control group (NC, n=12): continuously injections of VEH1, VEH2 and VEH3 intraperitoneally once every day for 21 days; • (2) INH group (INH, n=7): continuously injections of INH, VEH1 and VEH2 intraperitoneally once every day for 21 days; • (3) BNPP-INH group (BNPP-INH, n=7): continuously injections of BNPP, INH and VEH2 intraperitoneally once every day for 21 days; • (4) DSF-INH group (DSF-INH, n=7): continuously injections of DSF, INH and VEH1 intraperitoneally once every day for 21 days; • (5) BNPP-DSF-INH group (BNPP-DSF-INH, n=7): continuously injections of BNPP DSH and INH intraperitoneally once every day for 21 days;
After the rats were sacrificed, the livers were subjected to histology analysis.

[4] = system: Male SD (Sprague-Dawley) rats; experiment: Galactose elimination capacity (GEC) residual liver function test in the rat INH study; type: in vivo; conditions: i.p. once daily for 21 days, galactose 0.5 g/kg i.v., mean±SD, control 4.9±0.8
Experimental: as §1
• (1) Normal control group (NC, n=12): continuously injections of VEH1, VEH2 and VEH3 intraperitoneally once every day for 21 days; • (2) INH group (INH, n=7): continuously injections of INH, VEH1 and VEH2 intraperitoneally once every day for 21 days; • (3) BNPP-INH group (BNPP-INH, n=7): continuously injections of BNPP, INH and VEH2 intraperitoneally once every day for 21 days; • (4) DSF-INH group (DSF-INH, n=7): continuously injections of DSF, INH and VEH1 intraperitoneally once every day for 21 days; • (5) BNPP-DSF-INH group (BNPP-DSF-INH, n=7): continuously injections of BNPP DSH and INH intraperitoneally once every day for 21 days; […]

[5] = system: Male SD (Sprague-Dawley) rats; experiment: Rat 21-day INH hepatotoxicity study: plasma AST/ALT, body and relative liver weight; conditions: i.p. once daily for 21 days, INH 25 mg/kg, mean±SD
[6] = molecular target: T2, cDNA expressed human cytochrome P450 2E1 (CYP2E1); conditions: 40 min, pH 7.4
CYP2E1 [7] = molecular target: T3, CYP2E1 (Homo sapiens, UniProt P05181); experiment: in vitro; conditions: for inhibition at 40 min, 16.5 µM: tested concentration 16.5 μM
[8] = molecular target: T1, human liver microsomal cytochrome P450 2E1 (CYP2E1); conditions: for 6-OH-CZX concentration: human, 30 min, pH 7.4
CYP2E1 [9] = molecular target: T3, CYP2E1; experiment: Chlorzoxazone hydroxylation inhibition (6-OH-CZX by LC/MS/MS); conditions: human, microsomes, pH 7.4
[10] = pH 7.4, Inhibition of CYP 2E1 (%)

T3 sequence (P05181 whole entry): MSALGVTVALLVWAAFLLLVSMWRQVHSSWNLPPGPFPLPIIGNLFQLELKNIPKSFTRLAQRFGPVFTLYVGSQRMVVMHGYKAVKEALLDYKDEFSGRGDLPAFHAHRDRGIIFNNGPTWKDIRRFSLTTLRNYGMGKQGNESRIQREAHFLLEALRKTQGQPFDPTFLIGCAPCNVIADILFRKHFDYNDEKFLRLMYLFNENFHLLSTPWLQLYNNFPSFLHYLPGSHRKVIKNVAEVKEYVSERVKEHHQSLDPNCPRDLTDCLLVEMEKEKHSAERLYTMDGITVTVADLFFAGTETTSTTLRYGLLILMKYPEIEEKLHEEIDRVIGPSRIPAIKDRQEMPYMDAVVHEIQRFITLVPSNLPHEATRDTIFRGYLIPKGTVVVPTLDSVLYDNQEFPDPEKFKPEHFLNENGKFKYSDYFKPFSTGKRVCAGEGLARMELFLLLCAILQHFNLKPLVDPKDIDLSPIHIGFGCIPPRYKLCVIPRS
T2 sequence (P05181 whole entry): as above
T1 sequence (P05181 whole entry): as above

O=[N+]([O-])c1ccc(OP(=O)(O)Oc2ccc([N+](=O)[O-])cc2)cc1 [BNPP, bis-p-nitrophenyl phosphate]
effect on isoniazid-induced hepatotoxicity (rabbits): can prevent isoniazid-induced hepatotoxicity

COc1c(O)cc2oc(Oc3ccc(O)cc3)cc(=O)c2c1O [Capillarisin]
Inhibition of CYP 2E1 (%) ([1]; tested concentration 16.5 μM): 32.89 ± 2.46%
Inhibition of CYP 2E1 (%) ([1]; tested concentration 33 μM): 46.22 ± 2.65%
Inhibition of CYP 2E1 (%) ([1]; tested concentration 66 μM): 57.31 ± 1.31%
Inhibition of CYP 2E1 (%) ([2]; tested concentration 16.5 μM): 49.05 ± 5.18%
Inhibition of CYP 2E1 (%) ([2]; tested concentration 33 μM): 60.54 ± 5.91%
Inhibition of CYP 2E1 (%) ([2]; tested concentration 66 μM): 76.12 ± 1.89%

NNC(=O)c1ccncc1 [INH, isoniazid]
hepatic necrosis (EM results) ([3]; daily i.p. injections for three weeks): no hepatic necrosis was observed
liver injury (histopathology) ([3]; daily i.p. injections for three weeks, versus control group): hepatocellular damage
hepatocyte rough endoplasmic reticulum (rER) versus control ([3]; electron microscopy 9,000×): increased significantly
GEC value [4]: 3.4±0.6 mg/min·kg
peak plasma ALT activity ([5]; control 44±6): 52±3 IU/L
peak plasma AST activity ([5]; control 116±11): 129±10 IU/L

O=c1ccc2ccc(O)cc2o1 [Umbelliferone]
Inhibition of CYP 2E1 (%) ([6]; 33 µM): −571.97 ± 117.56%
Inhibition of CYP 2E1 (%) ([6]; 66 µM): −1081.56 ± 168.00%
inhibition at 40 min, 16.5 µM (CYP2E1 [7]; [10]): -280 ± 19.5%

O=c1cc(-c2ccccc2)oc2ccc3ccccc3c12 [β-naphthoflavone]
Inhibition of CYP 2E1 (%) ([2]; tested concentration 16.5 μM): 6.52 ± 6.64%
Inhibition of CYP 2E1 (%) ([2]; tested concentration 33 μM): 16.83 ± 0.96%
Inhibition of CYP 2E1 (%) ([2]; tested concentration 66 μM): 15.40 ± 12.94%

COc1c(O)cc(O)c2c(=O)cc(-c3ccccc3)oc12 [Wongonin]
Inhibition of CYP 2E1 (%) ([2]; tested concentration 33 μM): 21.87 ± 1.90%

CC(Cc1ccc(O)c(O)c1)C(C)Cc1ccc(O)c(O)c1 (stereo not drawn) [Nordihydroguaiaretic acid]
Inhibition of CYP 2E1 (%) ([8]; microsomes, 33 µM): 67.68. ± 2.24%
inhibition at 40 min, 33 µM (CYP2E1 [7]; pH 7.4): 92.4 ± 2.2%
inhibition at 40 min, 16.5 µM (CYP2E1 [7]; [10]): 76.5 ± 3.86%
inhibition at 40 min, 66 µM (CYP2E1 [7]; pH 7.4, Inhibition of CYP 2E1 (%), tested concentration 66 μM): 97.99 ± 0.66%
inhibition at 30 min, 16.5 µM (CYP2E1 [9]): 49.8 ± 2.42%
inhibition at 30 min, 66 µM (CYP2E1 [9]): 96.98 ± 0.19%

CCN(CC)C(=S)S [DDTC, Diethyldithiocarbamic acid]
HFC synthesis ([6]; 0.03 μM): 256.00 pmol
HFC synthesis ([6]; 0.091 μM): 202.00 pmol
HFC synthesis ([6]; 2.47 μM): 55.18 pmol
HFC synthesis ([6]; 7.4 μM): 21.08 pmol
HFC synthesis ([6]; 22.2 μM): 15.10 pmol
6-OH-CZX concentration ([8]; 50 μM): 1644.5 pmol
6-OH-CZX concentration ([8]; 100 μM): 431.2 pmol
inhibition at 40 min, 0.091 μM (CYP2E1 [7]; pH 7.4, Inhibition of CYP 2E1 (%), DDTC 0.091 μM): 8.71%
inhibition at 40 min, 2.47 μM (CYP2E1 [7]; pH 7.4, Inhibition of CYP 2E1 (%), DDTC 2.47 μM): 75.1%
inhibition at 40 min, 7.4 μM (CYP2E1 [7]; pH 7.4, Inhibition of CYP 2E1 (%), DDTC 7.4 μM): 90.5%
inhibition at 40 min, 22.2 μM (CYP2E1 [7]; pH 7.4, Inhibition of CYP 2E1 (%), DDTC 22.2 μM): 93.2%
inhibition at 30 min, 50 μM (CYP2E1 [9]): 48.7%
inhibition at 30 min, 100 μM (CYP2E1 [9]): 87.6%
